# From patent US20200055839A1 (priority 2017, published 2020)
# System: NL-RLuc virus
# Assay: Inhibition of HIV replication (NL-RLuc virus, luciferase readout in MT-2 cells)
# Assay type: cell-based
# Details: Human immunodeficiency virus 1, MT2, 120 h, MT-2 cells infected with NL-RLuc virus, 5 days of incubation, 10% FBS, at least 2 experiments
# Summary of the method: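 EC50 derived via median effect equation from at least 2 experiments, using luciferase expression as virus-growth readout. Replication-competent NL-RLuc reporter virus (nef partly replaced by Renilla luciferase) infected MT-2 cells with serial compound dilutions; 5-day incubation in RPMI 1640 plus 10% FBS.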
smiles,measurement,value
"Cc1nc(Nc2ncccn2)c(-c2ccc(OCCc3ccc(F)cc3)c(F)c2)c(N2CCC(C)(C)CC2)c1[C@H](OC(C)(C)C)C(=O)O [Example 105, (S)-2-(tert-Butoxy)-2-(4-(4,4-dimethylpiperidin-1-yl)-5-(3-fluoro-4-(4-fluorophenethoxy)phenyl)-2-methyl-6-(pyrimidin-2-ylamino)pyridin-3-yl)acetic acid]",EC50,4 nM
"Cc1nc(CNC(=O)OC(C)(C)C)c(-c2ccc(OCCc3ccc(F)cc3)cc2)c(N2CCC(C)(C)CC2)c1[C@H](OC(C)(C)C)C(=O)O [Example 23, (S)-2-(tert-Butoxy)-2-(6-(((tert-butoxycarbonyl)amino)methyl)-4-(4,4-dimethylpiperidin-1-yl)-5-(4-(4-fluorophenethoxy)phenyl)-2-methylpyridin-3-yl)acetic acid]",EC50,2 nM
"COCCNc1nc(C)c([C@H](OC(C)(C)C)C(=O)O)c(N2CCC(C)(C)CC2)c1-c1ccc(OCCc2ccc(F)cc2)cc1 [Example 27, (S)-2-(tert-Butoxy)-2-(4-(4,4-dimethylpiperidin-1-yl)-5-(4-(4-fluorophenethoxy)phenyl)-6-((2-methoxyethyl)amino)-2-methylpyridin-3-yl)acetic acid]",EC50,0.7 nM
"Cc1cccc(-c2cnc(C)c([C@H](OC(C)(C)C)C(=O)O)c2N2CCC(C)(C)CC2)c1 [Example 177, (2S)-2-(tert-Butoxy)-2-[4-(4,4-dimethylpiperidin-1-yl)-2-methyl-5-(3-methylphenyl)pyridin-3-yl]acetic acid]",EC50,12 nM
"Cc1ccc(Nc2nc(C)c([C@H](OC(C)(C)C)C(=O)O)c(N3CCC(C)(C)CC3)c2-c2ccc(OCCc3ccc(F)cc3)cc2)c(C)n1 [Example 85, (S)-2-(tert-Butoxy)-2-(4-(4,4-dimethylpiperidin-1-yl)-6-((2,6-dimethylpyridin-3-yl)amino)-5-(4-(4-fluorophenethoxy)phenyl)-2-methylpyridin-3-yl)acetic acid]",EC50,3 nM
"Cc1ncc(-c2ccncc2)c(N2CCC(C)(C)CC2)c1[C@H](OC(C)(C)C)C(=O)O [Example 141, (2S)-2-(tert-Butoxy)-2-[4-(4,4-dimethylpiperidin-1-yl)-6-methyl-[3, 4′-bipyridine]-5-yl]acetic acid]",EC50,8 nM
"Cc1ncc(-c2ccc(F)nc2OCCc2ccc(F)cc2)c(N2CCC(C)(C)CC2)c1[C@H](OC(C)(C)C)C(=O)O (single isomer, unassigned) [Example 262]",EC50,1130 nM
"COc1c(F)cc(-c2c(CN3CCCCCCC3)nc(C)c([C@H](OC(C)(C)C)C(=O)O)c2N2CCC(C)(C)CC2)cc1F [Example 199, (2S)-2-{6-[(Azocan-1-yl)methyl]-5-(3,5-difluoro-4-methoxyphenyl)-4-(4,4-dimethylpiperidin-1-yl)-2-methylpyridin-3-yl}-2-(tert-butoxy)acetic acid]",EC50,4 nM
"CCCCNc1ncc(-c2cnc(C)c([C@H](OC(C)(C)C)C(=O)O)c2N2CCC(C)(C)CC2)cc1F [Example 414, (S)-2-(tert-Butoxy)-2-(6′-(butylamino)-4-(4,4-dimethylpiperidin-1-yl)-5′-fluoro-6-methyl-[3,3′-bipyridin]-5-yl)acetic acid]",EC50,3 nM
"Cc1nc(NCCN2CCN(C)CC2)c(-c2ccc(OCCc3ccc(F)cc3)cc2)c(N2CCC(C)(C)CC2)c1[C@H](OC(C)(C)C)C(=O)O [Example 43, (S)-2-(tert-Butoxy)-2-(4-(4,4-dimethylpiperidin-1-yl)-5-(4-(4-fluorophenethoxy)phenyl)-2-methyl-6-((2-(4-methylpiperazin-1-yl)ethyl)amino)pyridin-3-yl)acetic acid]",EC50,0.6 nM
"Cc1ncc(-c2cnc(OCCC(C)(C)C)c(F)c2)c(N2CCC(C)(C)CC2)c1[C@H](OC(C)(C)C)C(=O)O [Example 376, (2S)-2-(tert-butoxy)-2-[6′-(3,3-dimethylbutoxy)-4-(4,4-dimethylpiperidin-1-yl)-5′-fluoro-6-methyl-[3,3′-bipyridine]-5-yl]acetic acid]",EC50,5 nM
"CCCCNc1ccc(-c2cnc(C)c([C@H](OC(C)(C)C)C(=O)O)c2N2CCC(C)(C)CC2)nc1 [Example 441, (S)-2-(tert-Butoxy)-2-(5-(butylamino)-4′-(4,4-dimethylpiperidin-1-yl)-6′-methyl-[2, 3′-bipyridin]-5′-yl)acetic acid]",EC50,7 nM
"Cc1ncc(-c2cnc(OCCc3c(F)cc(F)cc3F)c(F)c2)c(N2CCC(C)(C)CC2)c1[C@H](OC(C)(C)C)C(=O)O [Example 404, (2S)-2-(tert-butoxy)-2-[4-(4,4-dimethylpiperidin-1-yl)-5′-fluoro-6-methyl-6′-[2-(2,4,6-trifluorophenyl)ethoxy]-[3,3′-bipyridine]-5-yl]acetic acid]",EC50,3 nM
"Cc1ncc(-c2ccc(OCCc3ccccc3)cc2)c(N2CCC(C)(C)CC2)c1[C@H](OC(C)(C)C)C(=O)O [Example 265, (S)-2-(tert-Butoxy)-2-(4-(4,4-dimethylpiperidin-1-yl)-2-methyl-5-(4-phenethoxyphenyl)pyridin-3-yl)acetic acid]",EC50,1 nM
"Cc1nc(Nc2ccncn2)c(-c2ccc(OCCc3ccc(F)cc3)cc2)c(N2CCC(C)(C)CC2)c1[C@H](OC(C)(C)C)C(=O)O [Example 88, (S)-2-(tert-Butoxy)-2-(4-(4,4-dimethylpiperidin-1-yl)-5-(4-(4-fluorophenethoxy)phenyl)-2-methyl-6-(pyrimidin-4-ylamino)pyridin-3-yl)acetic acid]",EC50,0.5 nM
"COc1c(F)cc(-c2c(CN3CCC3)nc(C)c([C@H](OC(C)(C)C)C(=O)O)c2N2CCC(C)(C)CC2)cc1F [Example 196, (2S)-2-{6-[(Azetidin-1-yl)methyl]-5-(3,5-difluoro-4-methoxyphenyl)-4-(4,4-dimethylpiperidin-1-yl)-2-methylpyridin-3-yl}-2-(tert-butoxy)acetic acid]",EC50,19 nM
"Cc1ccc(F)cc1CCOc1ncc(-c2cnc(C)c([C@H](OC(C)(C)C)C(=O)O)c2N2CCC(C)(C)CC2)cc1F [Example 401, (2S)-2-(tert-butoxy)-2-[4-(4,4-dimethylpiperidin-1-yl)-5′-fluoro-6′-[2-(5-fluoro-2-methylphenyl)ethoxy]-6-methyl-[3,3′-bipyridine]-5-yl]acetic acid]",EC50,2 nM
"Cc1cn(-c2nc(C)c([C@H](OC(C)(C)C)C(=O)O)c(N3CCC(C)(C)CC3)c2-c2ccc(OCCc3ccc(F)cc3)cc2)cn1 (single isomer, unassigned) [Example 56]",EC50,2 nM
"COc1cccc(-c2cnc(C)c([C@H](OC(C)(C)C)C(=O)O)c2N2CCC(C)(C)CC2)c1 [Example 168, (2S)-2-(tert-Butoxy)-2-[4-(4,4-dimethylpiperidin-1-yl)-5-(3-methoxyphenyl)-2-methylpyridin-3-yl]acetic acid]",EC50,4 nM
"CCC(C)(C)O[C@H](C(=O)O)c1c(C)ncc(-c2ccc(OCCc3ccccc3)cc2)c1N1CCC(C)(C)CC1 [Example 264, (S)-2-(4-(4,4-Dimethylpiperidin-1-yl)-2-methyl-5-(4-phenethoxyphenyl)pyridin-3-yl)-2-(tert-pentyloxy)acetic acid]",EC50,3 nM
"Cc1[nH]c(=O)c([C@H](OC(C)(C)C)C(=O)O)c(N2CCC(C)(C)CC2)c1-c1ccc(OCCc2ccc(F)cc2)cc1 [Example 4, (S)-2-(tert-butoxy)-2-(4-(4,4-dimethylpiperidin-1-yl)-5-(4-(4-fluorophenethoxy)phenyl)-6-methyl-2-oxo-1,2-dihydropyridin-3-yl)acetic acid]",EC50,8 nM
"Cc1ncc(-c2ccc(F)nc2OCC(C)C)c(N2CCC(C)(C)CC2)c1[C@H](OC(C)(C)C)C(=O)O [Example 435, (2S)-2-tert-Butoxy-2-(4-(4,4-dimethylpiperidin-1-yl)-6′-fluoro-2′-isobutoxy-6-methyl-3, 3′-bipyridin-5-yl)acetic acid]",EC50,501 nM
"Cc1ncc(-c2ccc(OCCc3ccccc3F)c(F)c2)c(N2CCC(C)(C)CC2)c1[C@H](OC(C)(C)C)C(=O)O [Example 128, (S)-2-(tert-Butoxy)-2-(4-(4,4-dimethylpiperidin-1-yl)-5-(3-fluoro-4-(2-fluorophenethoxy)phenyl)-2-methylpyridin-3-yl)acetic acid]",EC50,2 nM
"Cc1ncc(-c2ccc(F)c(F)c2F)c(N2CCC(C)(C)CC2)c1[C@H](OC(C)(C)C)C(=O)O [Example 162, (2S)-2-(tert-Butoxy)-2-[4-(4,4-dimethylpiperidin-1-yl)-2-methyl-5-(2,3,4-trifluorophenyl)pyridin-3-yl]acetic acid]",EC50,7 nM
"Cc1nc(C(C)O)c(-c2ccc(OCCc3ccc(F)cc3)c(F)c2)c(N2CCC(C)(C)CC2)c1[C@H](OC(C)(C)C)C(=O)O (single isomer, unassigned) [Example 236]",EC50,2 nM
"CCOc1c(C(F)(F)F)ccc(-c2cnc(C)c([C@H](OC(C)(C)C)C(=O)O)c2N2CCC(C)(C)CC2)c1F [Example 173, (2S)-2-(tert-butoxy)-2-[4-(4,4-dimethylpiperidin-1-yl)-5-[3-ethoxy-2-fluoro-4-(trifluoromethyl)phenyl]-2-methylpyridin-3-yl]acetic acid]",EC50,21 nM
"COc1c(F)cc(-c2c(CN3CCCC3)nc(C)c([C@H](OC(C)(C)C)C(=O)O)c2N2CCC(C)(C)CC2)cc1F [Example 198, (2S)-2-(tert-Butoxy)-2-[5-(3,5-difluoro-4-methoxyphenyl)-4-(4,4-dimethylpiperidin-1-yl)-2-methyl-6-[(pyrrolidin-1-yl)methyl]pyridin-3-yl]acetic acid]",EC50,12 nM
"COc1c(F)cc(-c2c(CO)nc(C)c([C@H](OC(C)(C)C)C(=O)O)c2N2CCC(C)(C)CC2)cc1F [Example 139, (S)-2-(tert-Butoxy)-2-(5-(3,5-difluoro-4-methoxyphenyl)-4-(4,4-dimethylpiperidin-1-yl)-6-(hydroxymethyl)-2-methylpyridin-3-yl)acetic acid]",EC50,27 nM
"Cc1ncc(-c2cccc(Cl)c2F)c(N2CCC(C)(C)CC2)c1[C@H](OC(C)(C)C)C(=O)O [Example 145, (2S)-2-(tert-Butoxy)-2-[5-(3-chloro-2-fluorophenyl)-4-(4,4-dimethylpiperidin-1-yl)-2-methylpyridin-3-yl]acetic acid]",EC50,5 nM
